In brackets after ≈: the same amount, converted by molar mass. Ends that are not written are not given here.
What was measured:
P. aeruginosa = test system: P. aeruginosa; set-up: method as in 7 sources, one per row (each row's own in cited_ref): ref 39 (a number printed in a supplementary file, which may have a reference list of its own: not looked up in the article's list) ||| ref 40 (a number printed in a supplementary file, which may have a reference list of its own: not looked up in the article's list) ||| ref 41 (a number printed in a supplementary file, which may have a reference list of its own: not looked up in the article's list) ||| ref 42 (a number printed in a supplementary file, which may have a reference list of its own: not looked up in the article's list) ||| ref 44 (a number printed in a supplementary file, which may have a reference list of its own: not looked up in the article's list) ||| ...; conditions: 1 × 10^5 ~ 3.5 × 10^5 cfu/ml, MHB; cited from earlier work
S. aureus = test system: S. aureus; set-up: method as in 7 sources, one per row (each row's own in cited_ref): ref 39 (a number printed in a supplementary file, which may have a reference list of its own: not looked up in the article's list) ||| ref 40 (a number printed in a supplementary file, which may have a reference list of its own: not looked up in the article's list) ||| ref 41 (a number printed in a supplementary file, which may have a reference list of its own: not looked up in the article's list) ||| ref 42 (a number printed in a supplementary file, which may have a reference list of its own: not looked up in the article's list) ||| ref 43 (a number printed in a supplementary file, which may have a reference list of its own: not looked up in the article's list) ||| ...; conditions: 1 × 10^5 ~ 3.5 × 10^5 cfu/ml, MHB; cited from earlier work
A. baumannii KCCM 40203 = assay: microbe, parasite or virus in culture; conditions: Acinetobacter baumannii, KCCM40203, read-out: MIC at resistance induction condition, A. baumannii KCCM 40203
Procedure: (§1) To assess antimicrobial activity, the MIC50 and MIC90 were measured using broth microdilution following CLSI guidelines. […] Each experiment was performed in triplicate. Meropenem (Sigma, Darmstadt, Germany) and colistin were used as control antibiotics. Cation-adjusted Mueller–Hinton broth (CAMHB) (Becton, Dickinson and Company, Franklin Lakes, USA) with supplied calcium (50 mg/L) and magnesium (10 mg/L) was used for the CLSI-test condition. Bacteria in midlog phase and peptides were separately diluted in CAMHB. The bacteria and peptide solutions were then mixed in 96-well polyethylene plates (SPL, Gyeonggi-do, Korea) and incubated for 18 h at 37 °C. The final concentration for bacteria was 5 × 10^5 CFU/ml. […] The MIC was defined to be the lowest concentration of peptide without visible turbidity by comparing with control antibiotics with the unaided eye. […] Each experiment was performed in triplicate. MICs in albumin and acetic acid solutions were measured using the same protocol but with 0.2% bovine serum albumin (Bovogen, Keilor, Australia), 0.01% acetic acid (Merck, New Jersey, USA), and CAMHB with both calcium and magnesium. In addition, MICs used in the antibiotic resistance acquisition test, the outer–inner membrane permeation test, and the transmembrane potential test and for FE-SEM were individually determined. The final bacterial concentrations used were as follows: for resistance acquisition, optical density (OD) 0.01; for outer–inner membrane permeability assays (LB), OD 0.1; for the transmembrane potential test, 1 × 10^8 CFU/ml (OD 0.171); […]. Inhibitory activity unidentifiable by direct observation was determined by counting the CFUs. Each experiment was performed at least twice.
A. baumannii (KCCM 40203) and S. aureus (KCTC 1621) were selected as drug-sensitive bacteria. Mutation-susceptible tetracycline (an antibiotic that targets ribosomes) (Sigma, Darmstadt, Germany) and ofloxacin (an antibiotic that targets DNA gyrase) (Sigma, Darmstadt, Germany), mutation-resistant colistin (an antibiotic that targets lipopolysaccharide) (Sigma, Darmstadt, Germany) and vancomycin (an antibiotic that targets peptidoglycan pentapeptide) (Sigma, Darmstadt, Germany) were used as control antibiotics. The MIC for each antibiotic against bacteria (at OD 0.01) was measured. […] The MIC for each passage was confirmed by additional broth microdilutions under CLSI guidelines. Resistance acquisition was induced for 30 days (30 passages), and each MIC value was confirmed by an independent MIC test against bacteria at each passage.

S. aureus KCTC 1621 = assay: microbe, parasite or virus in culture; type: cell-based; conditions: Staphylococcus aureus, KCTC1621, read-out: MIC at resistance induction condition, S. aureus KCTC 1621
Procedure: as §1
A. baumannii (KCCM 40203) and S. aureus (KCTC 1621) were selected as drug-sensitive bacteria. […] The MIC for each antibiotic against bacteria (at OD 0.01) was measured. […]

MDR A. baumannii = assay: microbe, parasite or virus in culture; conditions: Acinetobacter baumannii, ATCCBAA1605, 18 h, read-out: Minimum inhibitory concentrations, MDR A. baumannii
Outline: (§2)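 MIC was read by eye as the lowest peptide concentration leaving no visible turbidity. Peptide and mid-log cells (final 5 × 10^5 CFU/ml) were combined in cation-adjusted Mueller–Hinton broth containing 50 mg/L calcium and 10 mg/L magnesium and incubated 18 h at 37 °C.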

MDR E. faecalis = assay: microbe, parasite or virus in culture; conditions: Enterococcus faecalis, ATCC51575, 18 h, read-out: Minimum inhibitory concentrations, MDR E. faecalis
Outline: as §2

MDR P. aeruginosa = assay: microbe, parasite or virus in culture; conditions: Pseudomonas aeruginosa, CCARM2180, 18 h, read-out: Minimum inhibitory concentrations, MDR P. aeruginosa
Outline: as §2

MDR S. aureus = assay: microbe, parasite or virus in culture; conditions: Staphylococcus aureus, KCCM40510, 18 h, read-out: Minimum inhibitory concentrations, MDR S. aureus
Outline: as §2

K. pneumonia strains = assay: microbe, parasite or virus in culture; conditions: Klebsiella pneumoniae, read-out: MIC, K. pneumonia NCCP 16125
Procedure: Twenty-six A. baumannii strains were clinically isolated and gifted to us by the Kyungpook National University School of Medicine. One A. baumannii strain (ATCC 17978) was purchased and gifted to us by Kyungpook National University School of Medicine. One A. baumannii strain and 10 K. pneumoniae strains (NCCP) were purchased from the National Culture Collection for Pathogens.
as §1

E. aerogenes NCCP 16285 = assay: microbe, parasite or virus in culture; conditions: Klebsiella aerogenes, NCCP16285, read-out: MIC, E. aerogenes NCCP 16285
Procedure: as §1

Molecule	MIC (Strain 1), P. aeruginosa H103 (P. aeruginosa) [µM]	MIC (Strain 2), S. aureus ATCC 25923 (S. aureus) [µM]	MIC (A. baumannii KCCM 40203) [µM]	MIC (S. aureus KCTC 1621) [µM]	other results
KFKWWRMLI (not fully specified (C-terminus))	2.6	1.2	–	–	–
RLWWKIWLK (not fully specified (C-terminus))	22.5	1.4	–	–	–
KRRWRIWLV (not fully specified (C-terminus))	3.0	1.5	–	–	–
CC1COc2c(N3CCN(C)CC3)c(F)cc3c(=O)c(C(=O)O)cn1c23 (centres unmarked) [Ofloxacin]	–	–	1.25 (≈ 0.452 µg/mL)	1.25 (≈ 0.452 µg/mL)	–
WKWLKKWIK (not fully specified (C-terminus))	2.9	0.7	–	–	–
CN(C)[C@@H]1C(O)=C(C(N)=O)C(=O)[C@@]2(O)C(O)=C3C(=O)c4c(O)cccc4[C@@](C)(O)[C@H]3C[C@@H]12 [Tetracycline]	–	–	1.25 (≈ 0.556 µg/mL)	1.25 (≈ 0.556 µg/mL)	–
CN[C@H](CC(C)C)C(=O)N[C@H]1C(=O)N[C@@H](CC(N)=O)C(=O)N[C@H]2C(=O)N[C@H]3C(=O)N[C@H](C(=O)N[C@H](C(=O)O)c4cc(O)cc(O)c4-c4cc3ccc4O)[C@H](O)c3ccc(c(Cl)c3)Oc3cc2cc(c3O[C@@H]2O[C@H](CO)[C@@H](O)[C@H](O)[C@H]2O[C@H]2C[C@](C)(N)[C@H](O)[C@H](C)O2)Oc2ccc(cc2Cl)[C@H]1O [Vancomycin, reference compound]	–	–	1.25 (≈ 1.81 µg/mL)	1.25 (≈ 1.81 µg/mL)	MIC (MDR A. baumannii): > 5 µM; MIC (MDR E. faecalis): > 20 µM; MIC (MDR P. aeruginosa): > 5 µM; MIC (MDR S. aureus): 1.25 µM (≈ 1.81 µg/mL); MIC (K. pneumonia strains): > 5 µM; MIC (E. aerogenes NCCP 16285): > 5 µM

Reference: publication PMC9643456, “Matching amino acids membrane preference profile to improve activity of antimicrobial peptides” (Communications Biology, 2022)
